Results published in patent publication US20060166953A1, “Ciclesonide-containing sterile aqueous suspension” (priority 2002, published 2006).

Assay: Chemical stability of drug in the aqueous suspension against autoclaving (recovery rate by HPLC)
Assay type: physicochemical
Procedure: Comparison of Chemical Stability of Drug in the Aqueous Suspension Against Autoclaving
The suspension of Example 1 was put into a 500 mL glass container with a screw cap and sterilized by autoclaving at 121 degrees C. for 20 minutes. Subsequently, after mixing the suspension in the glass container, the ciclesonide concentration was quantified by HPLC.
The recovery rate of ciclesonide after the autoclaving was calculated by taking the ciclesonide concentration before the autoclaving to be 100%. The recovery rates of budesonide and beclomethasone dipropionate after the autoclaving were calculated by the same method.

Degradation by autoclaving procedure | Compound
degraded | CCCC1O[C@@H]2C[C@H]3[C@@H]4CCC5=CC(=O)C=C[C@]5(C)[C@H]4[C@@H](O)C[C@]3(C)[C@]2(C(=O)CO)O1 (stereo partly drawn) [budesonide, 16α,17-[(1RS)-butylidene-bis(oxy)]-11β,21-dihydroxypregna-1,4-diene-3,20-dione]
not degraded | CC(C)C(=O)OCC(=O)[C@@]12O[C@H](C3CCCCC3)O[C@@H]1C[C@H]1[C@@H]3CCC4=CC(=O)C=C[C@]4(C)[C@H]3[C@@H](O)C[C@@]12C [ciclesonide, (11β,16α)-16,17-[cyclohexylmethylenebis(oxy)]-11-hydroxy-21-(2-methyl-1-oxopropoxy)pregna-1,4,-diene-3,20-dione]
